Assays:
[1] = molecular target: human Farnesoid X receptor ligand-binding domain/Gal4 DNA binding domain chimera (Homo sapiens (Human), UniProt Q96RI1); assay: Cell-based assay of FXR activation (FXR-UAS-bla HEK 293T beta-lactamase reporter); conditions: cellular FXR beta-lactamase reporter assay; for Emax: HEK-293T, extent of activation relative to GW4064, read-out: % Efficacy; for EC50: FXR-UAS-bla HEK 293T cells, 16 h, pEC50 = -log EC50
How it was run: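 HEK 293T cells stably expressing a Gal4-fused human FXR LBD and a UAS-driven beta-lactamase reporter were incubated with serially diluted compounds for 16 h at 37 °C in phenol red-free DMEM with 2% charcoal-stripped FBS. CCF4 FRET read-out: excitation 409 nm, emission 447 nm. pEC50 comes from a 3-parameter logistic fit, and efficacy is given as % of GW4064.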

[2] = molecular target: ligand binding domain of human FXR (Homo sapiens (Human), UniProt Q96RI1); assay: FXR ligand binding assay (LanthaScreen TR-FRET, SRC2-2 peptide recruitment); conditions: for pEC50: -log EC50, concentration required to produce 50% activation; for Emax: extent of activation relative to GW4064, read-out: % Efficacy
ligand binding domain of human FXR, sequence (Q96RI1 262-486): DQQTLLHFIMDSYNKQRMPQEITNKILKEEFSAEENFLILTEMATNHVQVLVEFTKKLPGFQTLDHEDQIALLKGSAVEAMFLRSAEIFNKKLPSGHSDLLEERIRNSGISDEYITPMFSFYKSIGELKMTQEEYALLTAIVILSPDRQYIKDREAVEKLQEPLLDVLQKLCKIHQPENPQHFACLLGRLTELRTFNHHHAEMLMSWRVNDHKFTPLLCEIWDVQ

human Farnesoid X receptor ligand-binding domain/Gal4 DNA binding domain chimera, sequence (Q96RI1 262-486, change not shown): as the sequence (Q96RI1 262-486) above
human Farnesoid X receptor ligand-binding domain/Gal4 DNA binding domain chimera, sequence (P04386 1-147 partner): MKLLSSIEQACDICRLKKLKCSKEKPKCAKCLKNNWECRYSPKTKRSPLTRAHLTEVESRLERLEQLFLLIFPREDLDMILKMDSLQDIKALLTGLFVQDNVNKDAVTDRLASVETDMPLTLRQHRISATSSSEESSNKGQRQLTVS

Compound: O=C(O)c1cc(F)c2nc(N3C[C@@H]4C[C@H]3C[C@@H]4OCc3c(-c4c(Cl)cccc4Cl)noc3C3CC3)sc2c1 [Compound I-37, 2-[(1S,4S,5S)-5-{[5-cyclopropyl-3-(2,6-dichlorophenyl)-1,2-oxazol-4-yl]methoxy}-2-azabicyclo[2.2.1]heptan-2-yl]-4-fluoro-1,3-benzothiazole-6-carboxylic Acid]
- Emax [1]: 82%
- EC50 [1]: 1580 nM
- pEC50 [2]: >4.5
- Emax [2]: 0%

Compound: O=C(O)c1cc(F)c2nc(N3C[C@H]4C[C@@H]3C[C@@H]4OC(=O)c3c(-c4c(Cl)cccc4Cl)noc3C3CC3)sc2c1 [Compound I-38, 2-[(1R,4R,5S)-5-[5-cyclopropyl-3-(2,6-dichlorophenyl)-1,2-oxazole-4-carbonyloxy]-2-azabicyclo[2.2.1]heptan-2-yl]-4-fluoro-1,3-benzothiazole-6-carboxylic Acid]
- Emax [1]: 96%
- EC50 [1]: 200 nM
- pEC50 [2]: 6.3
- Emax [2]: 56%

Compound: O=C(O)c1cc(F)c2nc(N3C[C@H]4C[C@@H]3C[C@@H]4OCc3c(-c4c(Cl)cccc4Cl)noc3C3CC3)sc2c1 [Compound I-39, 2-[(1R,4R,5S)-5-{[5-cyclopropyl-3-(2,6-dichlorophenyl)-1,2-oxazol-4-yl]methoxy}-2-azabicyclo[2.2.1]heptan-2-yl]-4-fluoro-1,3-benzothiazole-6-carboxylic Acid]
- Emax [1]: 105%
- EC50 [1]: 50.1 nM
- pEC50 [2]: 7.8
- Emax [2]: 96%

Compound: O=C(O)c1cc(F)c2nc(N3C[C@H]4C[C@@H]3C[C@H]4OC(=O)c3c(-c4c(Cl)cccc4Cl)noc3C3CC3)sc2c1 [Compound I-40, 2-[(1R,4R,5R)-5-[5-cyclopropyl-3-(2,6-dichlorophenyl)-1,2-oxazole-4-carbonyloxy]-2-azabicyclo[2.2.1]heptan-2-yl]-4-fluoro-1,3-benzothiazole-6-carboxylic Acid]
- EC50 [1]: < 31600 nM
- pEC50 [2]: >4.5

Compound: O=C(O)c1cc(F)c2nc(N3C[C@H]4C[C@@H]3C[C@H]4OCc3c(-c4c(Cl)cccc4Cl)noc3C3CC3)sc2c1 [Compound I-41, 2-[(1R,4R,5R)-5-{[5-cyclopropyl-3-(2,6-dichlorophenyl)-1,2-oxazol-4-yl]methoxy}-2-azabicyclo[2.2.1]heptan-2-yl]-4-fluoro-1,3-benzothiazole-6-carboxylic Acid]
- Emax [1]: 40%
- EC50 [1]: 2510 nM
- pEC50 [2]: >4.5

Compound: O=C(O)c1ccc(N2C[C@@H]3C[C@H]2C[C@H]3OC(=O)c2c(-c3c(Cl)cccc3Cl)noc2C2CC2)cc1 [Compound I-42, 4-[(1S,4S,5R)-5-[5-cyclopropyl-3-(2,6-dichlorophenyl)-1,2-oxazole-4-carbonyloxy]-2-azabicyclo[2.2.1]heptan-2-yl]benzoic Acid]
- Emax [1]: 110%
- EC50 [1]: 39.8 nM
- pEC50 [2]: 7.6
- Emax [2]: 166%

Compound: O=C(O)c1ccc(N2C[C@@H]3C[C@H]2C[C@H]3OC(=O)c2c(-c3c(Cl)cccc3Cl)noc2C2CC2)c(F)c1 [Compound I-43, 4-[(1S,4S,5R)-5-[5-cyclopropyl-3-(2,6-dichlorophenyl)-1,2-oxazole-4-carbonyloxy]-2-azabicyclo[2.2.1]heptan-2-yl]-3-fluorobenzoic Acid]
- Emax [1]: 124%
- EC50 [1]: 6.31 nM
- pEC50 [2]: 7.8
- Emax [2]: 176%

Compound: O=C(O)c1ccc(N2C[C@@H]3C[C@H]2C[C@H]3OC(=O)c2c(-c3c(Cl)cccc3Cl)noc2C2(F)CC2)c(F)c1 [Compound I-44, 4-[(1S,4S,5R)-5-[3-(2,6-dichlorophenyl)-5-(1-fluorocyclopropyl)-1,2-oxazole-4-carbonyloxy]-2-azabicyclo[2.2.1]heptan-2-yl]-3-fluorobenzoic Acid]
- Emax [1]: 107%
- EC50 [1]: 10 nM
- pEC50 [2]: 7.6
- Emax [2]: 152%

Compound: CS(=O)(=O)NC(=O)c1ccc(N2C[C@@H]3C[C@H]2C[C@H]3OC(=O)c2c(-c3c(Cl)cccc3Cl)noc2C2CC2)cc1 [Compound I-45, (1S,4S,5R)-2-[4-(methanesulfonylcarbamoyl)phenyl]-2-azabicyclo[2.2.1]heptan-5-yl 5-cyclopropyl-3-(2,6-dichlorophenyl)-1,2-oxazole-4-carboxylate]
- Emax [1]: 107%
- EC50 [1]: 25.1 nM
- pEC50 [2]: 7.5
- Emax [2]: 152%

Compound: CCCS(=O)(=O)NC(=O)c1ccc(N2C[C@@H]3C[C@H]2C[C@H]3OC(=O)c2c(-c3c(Cl)cccc3Cl)noc2C2CC2)cc1 [Compound I-46, (1S,4S,5R)-2-{4-[(propane-1-sulfonyl)carbamoyl]phenyl}-2-azabicyclo[2.2.1]heptan-5-yl 5-cyclopropyl-3-(2,6-dichlorophenyl)-1,2-oxazole-4-carboxylate]
- Emax [1]: 110%
- EC50 [1]: 12.6 nM
- pEC50 [2]: 7.9
- Emax [2]: 174%

Compound: O=C(NS(=O)(=O)C1CC1)c1ccc(N2C[C@@H]3C[C@H]2C[C@H]3OC(=O)c2c(-c3c(Cl)cccc3Cl)noc2C2CC2)cc1 [Compound I-47, (1S,4S,5R)-2-{4-[(cyclopropanesulfonyl)carbamoyl]phenyl}-2-azabicyclo[2.2.1]heptan-5-yl 5-cyclopropyl-3-(2,6-dichlorophenyl)-1,2-oxazole-4-carboxylate]
- Emax [1]: 106%
- EC50 [1]: 15.8 nM
- pEC50 [2]: 7.8
- Emax [2]: 174%

Compound: CS(=O)(=O)NC(=O)c1ccc(N2C[C@@H]3C[C@H]2C[C@H]3OC(=O)c2c(-c3c(Cl)cccc3Cl)noc2C2CC2)c(F)c1 [Compound I-48, (1S,4S,5R)-2-[2-fluoro-4-(methanesulfonylcarbamoyl)phenyl]-2-azabicyclo[2.2.1]heptan-5-yl 5-cyclopropyl-3-(2,6-dichlorophenyl)-1,2-oxazole-4-carboxylate]
- Emax [1]: 119%
- EC50 [1]: 6.31 nM
- pEC50 [2]: 7.6
- Emax [2]: 199%

Compound: CCCS(=O)(=O)NC(=O)c1ccc(N2C[C@@H]3C[C@H]2C[C@H]3OC(=O)c2c(-c3c(Cl)cccc3Cl)noc2C2CC2)c(F)c1 [Compound I-49, (1S,4S,5R)-2-{2-fluoro-4-[(propane-1-sulfonyl)carbamoyl]phenyl}-2-azabicyclo[2.2.1]heptan-5-yl 5-cyclopropyl-3-(2,6-dichlorophenyl)-1,2-oxazole-4-carboxylate]
- Emax [1]: 118%
- EC50 [1]: 3.98 nM
- pEC50 [2]: 8
- Emax [2]: 188%

Compound: O=C(O[C@@H]1C[C@@H]2C[C@H]1CN2c1ccc(-c2nn[nH]n2)cc1)c1c(-c2c(Cl)cccc2Cl)noc1C1CC1 [Compound I-50, (1S,4S,5R)-2-[4-(2H-1,2,3,4-tetrazol-5-yl)phenyl]-2-azabicyclo[2.2.1]heptan-5-yl 5-cyclopropyl-3-(2,6-dichlorophenyl)-1,2-oxazole-4-carboxylate]
- Emax [1]: 109%
- EC50 [1]: 15.8 nM
- pEC50 [2]: 6.8
- Emax [2]: 184%

Compound: O=C(O[C@@H]1C[C@@H]2C[C@H]1CN2c1ccc(-c2nn[nH]n2)cc1F)c1c(-c2c(Cl)cccc2Cl)noc1C1CC1 [Compound I-51, (1S,4S,5R)-2-[2-fluoro-4-(2H-1,2,3,4-tetrazol-5-yl)phenyl]-2-azabicyclo[2.2.1]heptan-5-yl 5-cyclopropyl-3-(2,6-dichlorophenyl)-1,2-oxazole-4-carboxylate]
- Emax [1]: 104%
- EC50 [1]: 20 nM
- pEC50 [2]: 6.7
- Emax [2]: 269%
